Assay results reported in ChEMBL document CHEMBL5050861 (2021).
Converted amounts (≈) assume the structure as drawn.

Assays:
[1] = Inhibition of human GALK1 K252A/E253A double mutant; details: read-out: IC50
Homo sapiens = species: Homo sapiens; assay: Inhibition of human GALK1 K252A/E253A double mutant relative to control; parameters: concentration or dose not given beside the values; details: concentration not given here
[2] = Permeability of compound by PAMPA assay; assay type: ADME; details: for Papp: read-out: permeability
[3] = Stability of compound in rat microsomes assessed as half-life; assay type: ADME, Microsome
[4] = Inhibition of recombinant mouse GALK1 using ATP as substrate incubated for 1 hr and measured by Kinase-Glo assay
[5] = Kinetic aqueous solubility of the compound; assay type: physicochemical; details: buffer; read-out: Kinetic_solubility

IC50 [1]	inhibition (Homo sapiens)	Papp [2]	half-life [3]	IC50 ([4]; read-out: IC50)	solubility kinetic [5]	IC50 [4]	permeability [2]	Compound
> 15000 nM	100%	< 1 ×10⁻⁶ cm/s	> 30 min	48.5 µM	61.1 µg/mL (≈ 107 µM)			CC1=C(C(=O)Nc2cc(C(=O)O)ccn2)C(c2ccccc2Cl)N=C(Nc2nc3cccc(C(F)(F)F)c3o2)N1 (centres undefined)
770 nM	90%		14.6 min	7.69 µM	26.6 µg/mL (≈ 55.9 µM)			CC1=C(C(=O)NCc2cn(C)cn2)C(c2ccccc2Cl)N=C(Nc2nc3ccccc3o2)N1 (racemic)
136 nM	100%		> 30 min	3.06 µM	2.8 µg/mL (≈ 5.23 µM)			CC1=C(C(=O)Nc2cc(C(=O)O)ccn2)C(c2ccc(C)cc2Cl)N=C(Nc2nc3ccc(F)cc3o2)N1 (racemic)
970 nM	88%		> 30 min	6.85 µM	> 74 µg/mL			CC1=C(C(=O)Nc2cc(C(=O)O)ccn2)C(c2ccccc2Cl)N=C(Nc2nc3ccccc3o2)N1 (racemic)
345 nM	85%	< 1 ×10⁻⁶ cm/s	> 30 min	3.85 µM	< 1 µg/mL			CC1=C(C(=O)Nc2cc(C(=O)O)ccn2)C(c2ccc(Cl)cc2Cl)N=C(Nc2nc3ccc(F)cc3o2)N1 (centres undefined)
> 15000 nM	80%	< 1 ×10⁻⁶ cm/s	> 30 min		65.7 µg/mL (≈ 123 µM)	Not Active		COc1cccc2nc(NC3=NC(c4ccccc4Cl)C(C(=O)Nc4cc(C(=O)O)ccn4)=C(C)N3)oc12 (centres undefined)
2250 nM	100%	< 10 ×10⁻⁶ cm/s	> 30 min	6.11 µM	6.3 µg/mL (≈ 11.7 µM)			CC1=C(C(=O)Nc2cc(C(=O)O)ccn2)C(c2ccccc2Cl)N=C(Nc2nc3ccc(Cl)cc3o2)N1 (centres undefined)
1400 nM	98%		8.87 min	6.85 µM	42 µg/mL (≈ 88.2 µM)			CC1=C(C(=O)NCc2cncn2C)C(c2ccccc2Cl)N=C(Nc2nc3ccccc3o2)N1 (centres undefined)
3900 nM	95%		> 30 min	10.7 µM	< 1 µg/mL			CC1=C(C(=O)Nc2nnc(C)s2)C(c2ccccc2Cl)N=C(Nc2nc3ccccc3o2)N1 (centres undefined)
2000 nM	100%	< 1 ×10⁻⁶ cm/s	> 30 min	12.2 µM	> 79 µg/mL			COc1ccc2oc(NC3=NC(c4ccccc4Cl)C(C(=O)Nc4cc(C(=O)O)ccn4)=C(C)N3)nc2c1 (centres undefined)
3100 nM	96%	< 1 ×10⁻⁶ cm/s	> 30 min	6.11 µM	59.1 µg/mL (≈ 118 µM)			CC1=C(C(=O)Nc2cccc(C(=O)O)c2)C(c2ccccc2Cl)N=C(Nc2nc3ccccc3o2)N1 (centres undefined)
3800 nM	90%	< 1 ×10⁻⁶ cm/s	> 30 min	21.7 µM	> 78 µg/mL			CC1=C(C(=O)Nc2cc(C(=O)O)ccn2)C(c2cccc(C(N)=O)c2)N=C(Nc2nc3ccc(F)cc3o2)N1 (centres undefined)
1700 nM	99%	< 1 ×10⁻⁶ cm/s	> 30 min		> 75 µg/mL			CC1=C(C(=O)Nc2ncc(C(=O)O)s2)C(c2ccccc2Cl)N=C(Nc2nc3ccccc3o2)N1 (centres undefined)
> 15000 nM	75%	< 10 ×10⁻⁶ cm/s	> 30 min	38.5 µM	> 84 µg/mL			CC1=C(C(=O)Nc2cc(C(=O)O)ccn2)C(c2cccc(S(N)(=O)=O)c2)N=C(Nc2nc3ccc(F)cc3o2)N1 (centres undefined)
6900 nM	100%	< 1 ×10⁻⁶ cm/s	> 30 min	17.2 µM	34.4 µg/mL (≈ 66.6 µM)			CC1=C(C(=O)Nc2cc(C(=O)O)ccn2)C(c2ccccc2Cl)N=C(Nc2nc3ccc(C)cc3o2)N1 (centres undefined)

Further lines, the molecule ahead of its results:

Compound	IC50 [1]	inhibition (Homo sapiens)	Papp [2]	half-life [3]	IC50 ([4]; read-out: IC50)	solubility kinetic [5]	IC50 [4]	permeability [2]
CC1=C(C(=O)Nc2cc(C(=O)O)ccn2)C(c2ccccc2Cl)N=C(Nc2nc3cc(F)ccc3o2)N1 (centres undefined)	3600 nM	100%	< 10 ×10⁻⁶ cm/s	< 10 min	17.2 µM	< 10000 µg/mL		
CC1=C(C(=O)Nc2ccccc2)C(c2ccccc2Cl)N=C(Nc2nc3ccccc3o2)N1 (centres undefined)	970 nM	57%	< 10 ×10⁻⁶ cm/s	24 min	13.7 µM	< 1 µg/mL		
CC1=C(C(=O)NCc2cncs2)C(c2ccccc2Cl)N=C(Nc2nc3ccccc3o2)N1 (centres undefined)	1200 nM	84%		6.43 min	12.2 µM	< 1 µg/mL		
CC1=C(C(=O)Nc2cc(C(=O)O)ccn2)C(c2ccccc2Cl)N=C(Nc2nc3cc(C)ccc3o2)N1 (centres undefined)	611 nM	100%	< 1 ×10⁻⁶ cm/s	> 30 min	3.06 µM	< 1 µg/mL		
CC1=C(C(=O)Nc2cc(C(=O)O)ccn2)C(c2ccccc2Br)N=C(Nc2nc3ccc(F)cc3o2)N1 (centres undefined)	235 nM	100%	< 10 ×10⁻⁶ cm/s	> 30 min	3.85 µM	36 µg/mL (≈ 63.7 µM)		
CC1=C(C(=O)Nc2cc(C(=O)O)ccn2)C(c2cccc(C(F)(F)F)c2)N=C(Nc2nc3ccc(F)cc3o2)N1 (centres undefined)	> 15000 nM	90%	< 1 ×10⁻⁶ cm/s	> 30 min		60.1 µg/mL (≈ 108 µM)	Not Active	
CC1=C(C(=O)Nc2cc(C(=O)O)ccn2)C(c2cccc(Cl)c2Cl)N=C(Nc2nc3ccc(F)cc3o2)N1 (centres undefined)	3600 nM	100%	< 10 ×10⁻⁶ cm/s	> 30 min	21.7 µM	55.5 µg/mL (≈ 99.9 µM)		
CC1=C(C(=O)Nc2cc(C(=O)O)ccn2)C(c2ccccc2Cl)N=C(Nc2nc3c(Cl)cccc3o2)N1 (centres undefined)	5800 nM	85%	< 1.3 ×10⁻⁶ cm/s	> 30 min	13.7 µM	< 1 µg/mL		
CC1=C(C(=O)Nc2nncs2)C(c2ccccc2Cl)N=C(Nc2nc3ccccc3o2)N1 (centres undefined)	3400 nM	96%		> 30 min	7.69 µM	< 1 µg/mL		
CC1=C(C(=O)Nc2cc(C(=O)O)ccn2)C(c2cccc(F)c2Cl)N=C(Nc2nc3ccc(F)cc3o2)N1 (centres undefined)	1800 nM	100%	< 10 ×10⁻⁶ cm/s	< 10 min	15.3 µM	< 10000 µg/mL		
CC1=C(C(=O)Nc2cc(C(=O)O)ccn2)C(c2ccccc2Cl)N=C(Nc2nc3c(F)cccc3o2)N1 (centres undefined)	3100 nM	94%	> 100 ×10⁻⁶ cm/s	> 30 min	21.7 µM	< 10000 µg/mL		
CC1=C(C(=O)Nc2cc(C(=O)O)ccn2)C(c2ccccc2Cl)N=C(Nc2nc3cccc(C)c3o2)N1 (centres undefined)	365 nM	100%	< 10 ×10⁻⁶ cm/s	> 30 min	6.85 µM	> 76 µg/mL		
CC1=C(C(=O)Nc2cc(C(=O)O)ccn2)C(c2ccccc2Cl)N=C(Nc2nc3c(C)cccc3o2)N1 (centres undefined)	5500 nM	100%	< 1.3 ×10⁻⁶ cm/s	> 30 min	17.2 µM	3.5 µg/mL (≈ 6.77 µM)		
CC1=C(C(=O)Nc2cc(C(=O)O)ccn2)C(c2ccc(F)cc2Cl)N=C(Nc2nc3ccc(F)cc3o2)N1 (centres undefined)	258 nM	100%	< 1 ×10⁻⁶ cm/s	> 30 min	4.32 µM	40.6 µg/mL (≈ 75.3 µM)		
CC1=C(C(=O)NCc2nccn2C)C(c2ccccc2Cl)N=C(Nc2nc3ccccc3o2)N1 (centres undefined)	11000 nM	94%	> 1110 ×10⁻⁶ cm/s	6.42 min	13.7 µM	23 µg/mL (≈ 48.3 µM)		
COc1ccc(C2N=C(Nc3nc4ccc(F)cc4o3)NC(C)=C2C(=O)Nc2cc(C(=O)O)ccn2)c(Cl)c1 (centres undefined)	300 nM	100%	< 10 ×10⁻⁶ cm/s	> 30 min	3.06 µM	8.3 µg/mL (≈ 15.1 µM)		
CC1=C(C(=O)Nc2cc(C(=O)O)ccn2)C(c2ccccc2Cl)N=C(Nc2nc3cccc(Cl)c3o2)N1 (centres undefined)	1000 nM	100%	< 1 ×10⁻⁶ cm/s	> 30 min	9.68 µM	57.5 µg/mL (≈ 107 µM)		
CC1=C(C(=O)Nc2ccc(C(=O)O)cc2)C(c2ccccc2Cl)N=C(Nc2nc3ccccc3o2)N1 (centres undefined)	1400 nM	100%		> 30 min	6.11 µM	< 1 µg/mL		
CC1=C(C(=O)Nc2cc(C(=O)O)ccn2)C(c2cccc(C(F)(F)F)c2Cl)N=C(Nc2nc3ccc(F)cc3o2)N1 (centres undefined)	2400 nM	97%	< 10 ×10⁻⁶ cm/s	> 30 min	27.3 µM	70.1 µg/mL (≈ 119 µM)		
CC1=C(C(=O)Nc2cc(C(=O)O)ccn2)C(c2ccccc2Cl)N=C(Nc2nc3cccc(F)c3o2)N1 (centres undefined)	1000 nM	100%	< 1 ×10⁻⁶ cm/s	> 30 min	8.63 µM	> 77 µg/mL		
CC1=C(C(=O)Nc2cc(C(=O)O)ccn2)C(c2ccccc2Cl)N=C(Nc2nc3cc(N)ccc3o2)N1 (centres undefined)	5500 nM	100%	10 ×10⁻⁶ cm/s	> 30 min	21.7 µM	> 76 µg/mL		
CC1=C(C(=O)Nc2cc(C(=O)O)ccn2)C(c2ccccc2Cl)N=C(Nc2nc3cc(Cl)ccc3o2)N1 (centres undefined)	1700 nM	100%	< 1 ×10⁻⁶ cm/s	> 30 min	6.11 µM	35.2 µg/mL (≈ 65.5 µM)		
COc1cccc(C2N=C(Nc3nc4ccc(F)cc4o3)NC(C)=C2C(=O)Nc2cc(C(=O)O)ccn2)c1Cl (centres undefined)	5400 nM	100%	< 1 ×10⁻⁶ cm/s	> 30 min	19.3 µM	> 81 µg/mL		
CC1=C(C(=O)NCc2cnn(C)c2)C(c2ccc(C)cc2Cl)N=C(Nc2nc3cccc(N)c3o2)N1 (centres undefined)	47 nM			14.1 min	2.17 µM	4.47 µg/mL (≈ 8.85 µM)		25.28 10^-6 cm/s
